Data from patent US20230227437A1, “IMMUNOMODULATOR” (priority 2020, published 2023).

Columns and labels:
human IL-17A (hIL-17A) = molecular target: T1, human IL-17A (hIL-17A) (Homo sapiens, UniProt Q16552); experiment: IL-17A enzyme-linked immunosorbent assay (competitive ELISA, receptor-ligand binding)
T1 construct: purchased Sino Biological Inc. 12047-H07B
T1 sequence (Q16552 24-155): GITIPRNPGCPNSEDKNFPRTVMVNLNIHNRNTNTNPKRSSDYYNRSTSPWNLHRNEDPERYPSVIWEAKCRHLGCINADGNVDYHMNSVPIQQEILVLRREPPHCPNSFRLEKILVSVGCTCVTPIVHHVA
Procedure: The inhibition of receptor-ligand binding by human IL-17A (hIL-17A) inhibitors was detected by competitive ELISA. A 96-well plate was inoculated 0.2 μg/ml IL-17 (Sino Biological Inc. Cat #12047-H07B) for incubation at 37° C. for 30 min, 100 μL for per well. The 96-well plate was washed four times with phosphate buffered saline (PBS) containing Tween-20 (PBST, 0.05% Tween-20), 200 μL for per well each time. 200 μL of 5% skim milk were added into the 96-well plate for incubation on a shaker at 25° C. for 30 min. The 96-well plate was washed four times with PBST (0.05% Tween-20), and added with 89 μL of PBST and 1 μL of a compound to be measured (100×), in which a concentration the compound to be measured (100×) was 0.003 μM-30 μM. The mixture was mixed evenly and incubated at 25° C. for 10 min. The mixture was added with 10 μL of 16 nM IL-17R, followed by incubation at 25° C. for 30 min. After washing the 96-well plate 4 times, 100 μL of anti-Fc tag horseradish peroxidase (HRP) coupled antibody were added for incubation on a shaker at 25° C. for 30 min. After washing the 96-well plate 4 times, 100 μL of 3,3′,5,5′-tetramethylbenzidine (TMB) substrate solution were added to the 96-well plate for incubation away from light at 25° C. After addition of 20% HCl, an absorbance was measure by a microplate reader at 450 nm.
The compounds prepared according to the above method were assayed for human IL-17A inhibitory activity.

hIL-17A = molecular target: T2, hIL-17A (Homo sapiens, UniProt Q16552); experiment: Inhibition of hIL-17A-induced chemokine GROα/CXCL1 production in HT-29 cell; type: cell-based
T2 construct: purchased R&D 317-ILB
T2 sequence (Q16552 20-155 limits assumed): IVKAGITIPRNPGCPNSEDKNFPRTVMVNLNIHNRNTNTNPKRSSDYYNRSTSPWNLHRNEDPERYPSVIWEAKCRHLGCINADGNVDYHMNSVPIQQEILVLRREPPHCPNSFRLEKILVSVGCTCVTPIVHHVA
Procedure: Human colorectal adenocarcinoma cell HT-29 was inoculated to a 96-well plate (5×10^4 for per well), and incubated at 37° C. on an incubator overnight. A mixture of 30 ng/mL hIL-17A protein (R&D, #317-ILB) with gradient concentrations of IL-17A small molecule inhibitors or with 0.3 μg/mL positive control IL-17A antibody (R&D, #AF-317-NA) was incubated for 1 h at 37° C., and added into the 96-well plate to incubated with HT-29 at 37° C. for 48 h. A level of GROα in a cell culture supernatant was then detected using an ELISA kit for GROα (Cisbio, #62HCXC1peg).
Inhibitory effect of the compound prepared in Examples on hIL-17A-induced chemokine GROα/CXCL1 production in HT-29 cell was tested according to the methods of Experimental Examples 1 and 2. […] “-” indicated not tested. According to the results, the compounds provided herein have good human IL-17A inhibitory activity and can be effectively used in the treatment of diseases associated with abnormal hIL-17A activity.

hIL-17A protein = molecular target: T3, hIL-17A protein (Homo sapiens, UniProt Q16552); experiment: Binding to hIL-17A protein through surface plasmon resonance (SPR, Biacore 8K); settings: for ka / kd: SPR; for binding to hIL-17A (SPR, in words): compared with the positive compound
T3 sequence (Q16552 24-155): T1 sequence (Q16552 24-155)
Procedure: The binding of the compounds provided herein to the hIL-17A protein was tested using SPR, and analyzed using a Biacore 8K system. A positive compound was the compound of Example 32 in WO2020/127685A1.

[1] = Drug metabolism properties (pharmacokinetics) in mice; type: in vivo; settings: mouse, plasma, intravenous injection/oral gavage, read-out: Oral bioavailability F % (mice)
Procedure: In order to investigate the drug metabolism property of the compounds provided herein in mice, a compound solution was given to 6 mice by intravenous injection/oral gavage at corresponding doses. Mice were divided into groups A and B for each administration, where anticoagulated whole blood was collected from group A at 5 min, 30 min, 2 h and 8 h after drug administration; and anticoagulated whole blood was collected from group B at 15 min, 1 h, 4 h and 24 h after drug administration. plasma was separated.
(§1) Plasma concentrations of compounds were determined by standard curve calibration method using LC-MS. Using Winnolin 5.2 software, plasma concentration-time data were fitted to pharmacokinetic parameters, including elimination half-life (T1/2), area under the plasma pharmacokinetic curve at the sampling endpoint (AUClast), peak concentration (Cmax), apparent volume of distribution (Vz), total clearance ration (Cl), and absolute bioavailability (F %).

[2] = Drug metabolism properties (pharmacokinetics) in rats; type: in vivo; settings: plasma; rat, intravenous injection/oral gavage; read-out: Oral bioavailability F % (rat)
Procedure: (§2) In order to investigate the drug metabolism property of the compounds provided herein in rats, a compound solution was given to 3 rats by intravenous injection/oral gavage at corresponding doses. After 5 min, 15 min, 30 min, 1 h, 2 h, 4 h, 8 h and 24 h administration, anticoagulated whole blood was collected from rats, and plasma was separated.
as §1

[3] = Drug metabolism properties (pharmacokinetics) in dogs; type: in vivo; settings: both sexes, plasma; dog, intravenous injection/oral gavage; read-out: Oral bioavailability F % (dog)
Procedure: as §2, with “in dogs,” for “in rats,”, “to 2 groups of dogs (4 dogs (2 males+2 females) for each group)” for “to 3 rats”, “After […]” for “After 5”, “8 h, 12 h, 24” for “8”, “and 36” for “and 24”, “from dogs,” for “from rats,”
as §1

hIL-17A/RA = molecular target: T4, hIL-17A/RA (Homo sapiens, UniProt Q16552); experiment: Reversibility of binding by jump dilution ELISA (hIL-17A/hIL-17RA); settings: for maintenance of binding to and inhibition of hIL-17A protein (jump dilution, in words): compared with the positive compound
T4 construct: biotin label (inferred from streptavidin-HRP detection)
T4 sequence (Q16552 24-155): T1 sequence (Q16552 24-155)
Procedure: The reversibility of the binding of the compounds in Examples to hIL-17A and the binding time of the compound-protein complex were qualitatively and quantitatively analyzed by jump dilution assay. The positive compound was the compound of Example 32 in WO2020/127685 A1. 7 nM hIL-17RA were inoculated to a 96-well plate (100 μL for per well), and incubated at 37° C. for 30 min. A blank group was 100 μL of coating buffer solution. After […] incubation at 4° C., the 96-well plate was washed with PBST (0.05% Tween-20) 4 times, 200 μL for per well each time. The 96-well plate was added with 200 μL 3% BSA (PBST diluted) and closed on a shaker at 37° C. for 30 min. […] The configured hIL7A was mixed with an equal volume of compound in a 200 ul centrifuge tube to obtain a protein-compound mixture. The protein-compound mixture was subjected to pre-incubation at room temperature for 15 min. The protein-compound mixture, positive control group and negative control group were diluted 200×. After closing, the 96-well plate was washed 4 times, and added with dilution 100 μL for per well to incubate at 25° C. for 28, 24, 5, 2 and 0 h. After washing the plate 4 times, 100 μL of Streptavidin-HRP coupled antibody diluted with 1% BSA was added and then incubated for 30 min on a shaker at 25° C. After washing the plate 4 times, 100 μL of TMB substrate solution were added, and incubated away from light for 5-15 min at 25° C. (depending on the color of the reaction). After addition of 20% HCl, an absorbance was measure by a microplate reader at 450 nm.

[4] = test system: imiquimod cream-induced psoriasis model; experiment: Pharmacodynamic test of imiquimod cream-induced psoriasis model in mice; type: in vivo, C57BL/6N mice
Procedure: The backs of […] female C57BL/6N mice were shaved approximately 2.5×4 cm, and imiquimod (IMQ, Imiquimod) cream was applied continuously from day 1 to day 5 to establish a psoriasis model. The compound 26 provided herein (3, 10, 30 mg/kg) was given once daily by gavage to the mice, an IL-17A antibody solution (Ab, 2 mg/kg) was given by intraperitoneal injection every other day to the mice, or a dexamethasone solution (10 mg/kg) was given once daily by intraperitoneal injection to the mice. […] A skin thickness of mice was measured on the first day and fifth day to examine IMQ-induced skin thickening (FIG. 3B).
The skin of each group of mice was collected on the fifth day to detect IL6 mRNA levels by RT-qPCR (FIG. 3C). […] The plasma of mice in each group was collected on the fifth day to determine the level of IL-6 protein (FIG. 3D).

SMILES	IC50 (human IL-17A (hIL-17A))	IC50 (hIL-17A)	Kd (hIL-17A protein)	ka (hIL-17A protein)	kd (hIL-17A protein)	binding to hIL-17A (SPR, in words) (hIL-17A protein)	bioavailability [1]	bioavailability [2]	bioavailability [3]	maintenance of binding to and inhibition of hIL-17A protein (jump dilution, in words) (hIL-17A/RA)	50% enzyme activity retention time, Value on hIL-17A/RA (10X cpds) (hIL-17A/RA; jump dilution)	skin pathological injury, HE staining ([4]; 30 mg/kg, fifth day, FIGS. 4A-4D)	IMQ-induced skin inflammation, AUC of PASI scoring ([4]; 3, 10, 30 mg/kg once daily by gavage, FIG. 3A)	skin IL6 mRNA levels by RT-qPCR ([4]; fifth day, FIG. 3C)	IL-6 protein level in plasma ([4]; fifth day, FIG. 3D)	IMQ-induced skin thickening ([4]; skin thickness first day and fifth day, FIG. 3B)	50% enzyme activity retention time, Value on hIL-17A/RA (5X cpds) (hIL-17A/RA; jump dilution, 5X cpds)
Cc1nonc1C(=O)N[C@H](C(=O)Nc1ccc(-c2c(C)n[nH]c2C)cc1)C1c2ccc(F)cc2OCC12CC2 (stereo partly drawn) [Compound 24]	53 nM	30 nM	0.00388 nM	12400 M⁻¹ s⁻¹	4.8e-08 s⁻¹	strong binding to hIL-17A and were much stronger than the positive compound	51%	56%	27%								
CCc1nonc1C(=O)N[C@H](C(=O)Nc1ccc(-c2c(C)n[nH]c2C)cc1)C1c2ccc(F)c(F)c2OCC12CC2 (stereo partly drawn) [Compound 58]	54 nM	109 nM					26%	28%	16%								
Cc1n[nH]c(C)c1-c1ncc(NC(=O)[C@@H](NC(=O)c2ccnn2C(C)C)C2c3cc(F)c(F)cc3OCC23CC3)cc1F (stereo partly drawn) [Compound 47]	88 nM	172 nM	0.00169 nM	20400 M⁻¹ s⁻¹	3.44e-08 s⁻¹	strong binding to hIL-17A and were much stronger than the positive compound				able to maintain binding to and inhibit the activity of hIL-17A protein for a long time	>28 h						
Cc1n[nH]c(C)c1-c1ccc(NC(=O)[C@@H](NC(=O)c2ccnn2C(C)C)C2c3ccc(F)cc3OCC23CC3)cn1 (stereo partly drawn) [Compound 18]	164 nM	332 nM					55%	18%	41%								
Cc1n[nH]c(C)c1-c1ccc(NC(=O)[C@@H](NC(=O)c2nonc2C2CC2)C2c3cc(F)c(F)cc3OCC23CC3)cc1 (stereo partly drawn) [Compound 49]	146 nM	146 nM					37%	17%	20%								
CCc1nonc1C(=O)N[C@H](C(=O)Nc1ccc(-c2c(C)n[nH]c2C)nc1)C1c2ccc(F)cc2OCC12CC2 (stereo partly drawn) [Compound 26]	70 nM	267 nM		21300 M⁻¹ s⁻¹	1.98e-08 s⁻¹	strong binding to hIL-17A and were much stronger than the positive compound	54%	16%		able to maintain binding to and inhibit the activity of hIL-17A protein for a long time		effective in inhibiting IMQ-induced skin inflammatory cell infiltration and damage	attenuated the level of IMQ-induced skin inflammation with effects similar to those of the IL-17A antibody	dose-dependent reversion	inhibited in a dose-dependent manner	reversed the skin thickening caused by IMQ to varying degrees	
CCc1nonc1C(=O)N[C@H](C(=O)Nc1ccc(-c2c(C)n[nH]c2C)cc1)C1c2cc(F)c(F)cc2OCC12CC2 (stereo partly drawn) [Compound 43]	55 nM	57 nM	0.00132 nM	14200 M⁻¹ s⁻¹	1.87e-08 s⁻¹	strong binding to hIL-17A and were much stronger than the positive compound	49%	36%	18%	able to maintain binding to and inhibit the activity of hIL-17A protein for a long time	>28 h						>28 h
